Measurements: US5736559A, “Biphenyl derivatives, pharmaceutical compositions containing these compounds and processes for preparing them” (Karl Thomae GmbH, priority 1991, dated 1998)
Structures can show the parent of a compound that is named as a salt.

Tests used:
[1] = molecular target: Fibrinogen binding to human thrombocytes; assay: Fibrinogen binding to human thrombocytes; settings: 125I fibrinogen; gel-filtered human platelets; ADP; 20 minutes at ambient temperature; read-out: Fibrinogen binding test IC50
Procedure: Fibrinogen binding to human thrombocytes The blood obtained by puncturing an antecubital vein is anticoagulated with trisodium citrate (final concentration: 13 mM) and centrifuged for 10 minutes at 170 xg. The supernatant platelet-rich plasma is poured onto a Sepharose 2B column (Pharmacia) and eluted with a solution of 90 mM common salt, 14 mM trisodium citrate, 5 mM glucose and 50 mM Tris(hydroxymethyl)aminomethane, adjusted to pH 7.4. The gel-filtered platelets (GFP) appearing before the plasma proteins are used for the binding experiments. 50 μl of a 60 mM calcium chloride solution, 50 μl of a 0.6 mM adenosine diphosphate solution, 100 μl of substance solution or solvent and 50 μl of fibrinogen solution (containing 3 μg of ^125 I fibrinogen) are added to 750 μl of GFP and incubated for 20 minutes at ambient temperature. The non-specific binding is determined in the presence of 3 mg/ml of cold fibrinogen. 900 μl of the incubated material are carefully pipetted onto 250 μl of silicon oil (AP 38: AR 20, 1:2 v/v, Wacker Chemie) in Eppendorf tubes and centrifuged for 2 minutes at 10,000 xg. The aqueous supernatant and some of the oil are drawn off, the tips of the tubes are cut off together with the platelet pellet and the quantity of bound fibrinogen is determined in a gamma counter. The concentration of substance which brings about a 50% inhibition in fibrinogen binding is determined from a series of concentrations and is given as the IC50 value.

[2] = system: thrombocyte (platelet) aggregation; assay: Antithrombotic activity: collagen-induced thrombocyte aggregation in platelet rich plasma (Born and Cross); type: cell-based; settings: Homo sapiens, platelet rich plasma from healthy test subjects, 10 minutes at 37° C. preincubation, 50% change in optical density, read-out: Inhibition of platelet aggregation EC50
Procedure: 2. Antithrombotic activity Method: Thrombocyte aggregation is measured in platelet rich plasma from healthy test subjects using the Born and Cross method (J. Physiol. 170, 397 (1964)). In order to inhibit coagulation the blood is mixed with sodium citrate 3.14% in a ratio by volume of 1:10. Collagen-induced aggregation: The course of the decrease in optical density of the platelet suspension is photometrically measured and recorded after the addition of the substance which triggers aggregation. The rate of aggregation is deduced from the gradient angle of the density curve. The point on the curve where there is maximum transmittance is used to calculate the optical density. The quantity of collagen used is as little as possible but sufficient to give an irreversible reaction curve. Standard commercial collagen produced by Hormonchemie of Munich is used. Before the addition of the collagen the plasma is incubated for 10 minutes at 37° C. with the substance. From the measurements obtained, an EC50 is determined graphically, relating to a 50% change in optical density in terms of the inhibition of aggregation.

| Structure (SMILES) | IC50 [1] [µM] | EC50 [2] [µM] |
| --- | --- | --- |
| N=C(N)c1ccc(-c2ccc(C(=O)NCCCC(=O)O)cc2)cc1 [1(2), 4-amidino-4'-[(3-carboxypropyl)aminocarbonyl]-biphenyl] | 0.12 | 7 |
| N=C(N)c1ccc(-c2ccc(OCC(=O)NCC(=O)O)cc2)cc1 [1(3), 4-amidino-4'-[[(carboxymethylamino)carbonyl]-methoxy]-biphenyl] | 1.8 | 13 |
| N=C(N)c1ccc(-c2ccc(OCC(=O)NCCC(=O)O)cc2)cc1 [1(4), 4-amidino-4'-[[(2-carboxyethyl)aminocarbonyl]-methyloxy]biphenyl] | 0.35 | 1.7 |
| N=C(N)c1ccc(-c2ccc(CC(=O)Nc3cccc(CC(=O)O)c3)cc2)cc1 [1(5), 4-amidino-4'-[[(3-carboxymethylphenyl)-aminocarbonyl]methyl]biphenyl] | 65 | > 100 |
| N=C(N)c1ccc(-c2ccc(OCC(=O)N3CCC(C(=O)O)CC3)cc2)cc1 [1(6), 4-amidino-4'-[[(4-carboxypiperidino)carbonyl]-methyloxy]biphenyl] | 0.33 | 1.2 |
| N=C(N)c1ccc(-c2ccc(OCC(=O)N3CCCC(C(=O)O)C3)cc2)cc1 (centres unmarked) [1(7), 4-amidino-4'-[[(3-carboxypiperidino)carbonyl]-methyloxy]biphenyl] | 1.9 | 3.8 |
| N=C(N)c1ccc(-c2ccc(C(=O)N3CCCC(CC(=O)O)C3)cc2)cc1 (centres unmarked) [1(41), 4-amidino-4'-[(3-carboxymethylpiperidino)-carbonyl]biphenyl hydrochloride] | 0.52 | 2.6 |
| N=C(N)c1ccc(-c2ccc(CC(=O)N3CCC(C(=O)O)CC3)cc2)cc1 [1(45), 4-amidino-4'-[(4-carboxypiperidino)-carbonylmethyl]biphenyl hydrochloride] | 0.22 | 2 |
| N=C(N)c1ccc(-c2ccc(CC(=O)N3CCCC(CC(=O)O)C3)cc2)cc1 (centres unmarked) [1(47), 4-amidino-4'-[(3-carboxymethylpiperidino)-carbonylmethyl]biphenyl hydrochloride] | 0.47 | 2.7 |
| N=C(N)c1ccc(-c2ccc(C(=O)NCCCCC(=O)O)cc2)cc1 [1(65), 4-amidino-4'-[(4-carboxybutyl)aminocarbonyl]-biphenyl hydrochloride] | 0.22 | 2.4 |
| N=C(N)c1ccc(-c2ccc(C(=O)N3CCN(CC(=O)O)CC3)cc2)cc1 [1(67), 4-amidino-4'-[(4-carboxymethylpiperazino)-carbonyl]biphenyl hydrochloride] | 0.18 | 0.35 |
| N=C(N)c1ccc(-c2ccc(C(=O)N3CCN(CCC(=O)O)CC3)cc2)cc1 [1(68), 4-amidino-4'-[[4-(2-carboxyethyl)piperazino]-carbonyl]biphenyl dihydrochloride] | 0.56 | 3.4 |
| N=C(N)c1ccc(-c2ccc(NS(=O)(=O)NCCC(=O)O)cc2)cc1 [1(69), 4-amidino-4'-[(2-carboxyethyl)aminosulphonyl-amino]biphenyl] | 3.1 | 12 |
| N=C(N)c1ccc(-c2ccc(C(=O)N3CCC(C(=O)O)CC3)cc2)cc1 [1(74), 4-amidino-4'-[(4-carboxypiperidino)carbonyl]-biphenyl hydrochloride] | 2.7 | 10.7 |
| N=C(N)c1ccc(-c2ccc(C(=O)NC3CCC(C(=O)O)CC3)cc2)cc1 (centres unmarked) [1(80), 4-amidino-4'-[(4-carboxycyclohexyl)aminocarbonyl]-biphenyl hydrochloride] | 0.031 | 0.04 |
| CN(C(=O)c1ccc(-c2ccc(C(=N)N)cc2)cc1)C1CCC(C(=O)O)CC1 (centres unmarked) [1(94), 4-amidino-4'-[N-(4-carboxycyclohexyl)-N-methyl-aminocarbonyl]biphenyl] | – | 0.04 |
| N=C(N)c1ccc(-c2ccc(OCCCC(=O)O)cc2)cc1 [2(1), 4-amidino-4'-(3-carboxypropyloxy)biphenyl] | > 10 | 56 |

| Structure (SMILES) | IC50 [1] [µM] | EC50 [2] [µM] |
| --- | --- | --- |
| N=C(N)c1ccc(-c2ccc(OCCCCC(=O)O)cc2)cc1 [2(2), 4-amidino-4'-(4-carboxybutyloxy)biphenyl] | 0.046 | 45 |
| COC(=O)CCCC(=O)Nc1ccc(-c2ccc(C(=N)N)cc2)cc1 [6(1), 4-amidino-4'-(4-methoxycarbonylbutyrylamino)-biphenyl hydrochloride] | 5.6 | 3.7 |
| COC(=O)CNC(=O)COc1ccc(-c2ccc(C(=N)N)cc2)cc1 [6(2), 4-amidino-4'-[[(4-methoxycarbonylmethyl)-aminocarbonyl]methyloxy]biphenyl hydrochloride] | 14 | 40 |
| COC(=O)CCNC(=O)COc1ccc(-c2ccc(C(=N)N)cc2)cc1 [6(3), 4-amidino-4'-[[(2-methoxycarbonylethyl)-aminocarbonyl]methyloxy]biphenyl h ydrochloride] | 18 | 17 |
| COC(=O)Cc1cccc(NC(=O)c2ccc(-c3ccc(C(=N)N)cc3)cc2)c1 [6(4), 4-amidino-4'-[[3-(methoxycarboxylmethyl)phenyl]-aminocarbonyl]biphenyl hydrochloride] | 47 | 4.4 |
| COC(=O)CCCOc1ccc(-c2ccc(C(=N)N)cc2)cc1 [6(8), 4-amidino-4'-(3-methoxycarbonylpropyloxy)biphenyl dihydrogencarbonate] | 5.2 | 3.4 |
| COC(=O)CCCCOc1ccc(-c2ccc(C(=N)N)cc2)cc1 [6(9), 4-amidino-4'-(4-methoxycarbonylbutyloxy)biphenyl hydrochloride] | 0.97 | 1.3 |
| COC(=O)Cc1cccc(NC(=O)Cc2ccc(-c3ccc(C(=N)N)cc3)cc2)c1 [6(46), 4-amidino-4'-[[[3-(methoxycarbonylmethyl)phenyl]-aminocarbonyl]methyl]biphenyl hydrochloride] | 19 | 82 |
| COC(=O)CCc1cccc(NC(=O)Cc2ccc(-c3ccc(C(=N)N)cc3)cc2)c1 [6(47), 4-amidino-4'-[[[3-(2-methoxycarbonylethyl)phenyl]-aminocarbonyl]methyl]biphenyl hydrochloride] | 4.9 | 42 |
| COC(=O)C1CCN(C(=O)COc2ccc(-c3ccc(C(=N)N)cc3)cc2)CC1 [6(48), 4-amidino-4'-[[(4-methoxycarbonylpiperidino)-carbonyl]methyloxy]biphenyl hydrochloride] | 25 | 0.59 |
| COC(=O)C1CCCN(C(=O)COc2ccc(-c3ccc(C(=N)N)cc3)cc2)C1 (centres unmarked) [6(49), 4-amidino-4'-[[(3-methoxycarbonylpiperidino)-carbonyl]methyloxy]biphenyl hydrochloride] | 32 | 36 |
| COC(=O)CC1CCN(C(=O)c2ccc(-c3ccc(C(=N)N)cc3)cc2)CC1 [6(50), 4-amidino-4'-[(4-methoxycarbonylmethylpiperidino)-carbonyl]biphenyl hydrochloride] | 0.34 | 0.89 |
| COC(=O)CC1CCCN(C(=O)c2ccc(-c3ccc(C(=N)N)cc3)cc2)C1 (centres unmarked) [6(52), 4-amidino-4'-[(3-methoxycarbonylmethylpiperidino)-carbonyl]biphenyl hydrochloride] | 16 | 38 |
| COC(=O)C1CCN(C(=O)Cc2ccc(-c3ccc(C(=N)N)cc3)cc2)CC1 [6(56), 4-amidino-4'-[(4-methoxycarbonylpiperidino)-carbonylmethyl]biphenyl hydrochloride] | 5.9 | 4.9 |
| COC(=O)CC1CCCN(C(=O)Cc2ccc(-c3ccc(C(=N)N)cc3)cc2)C1 (centres unmarked) [6(58), 4-amidino-4'-[(3-methoxycarbonylmethylpiperidino)-carbonylmethyl]biphenyl hydrochloride] | 34 | 23 |
| COC(=O)C1CCC(N(C)C(=O)c2ccc(-c3ccc(C(=N)N)cc3)cc2)CC1 (centres unmarked) [6(98), 4-amidino-4'-[N-(4-methoxycarbonylcyclohexyl)-N-methylaminocarbonyl]biphenyl hydrochloride] | – | 0.37 |
| CCOC(=O)CC1CCN(C(=O)c2ccc(-c3ccc(C(=N)NC(=O)OCC)cc3)cc2)CC1 [8(7), 4-(N-ethoxycarbonylamidino)-4'-[(4-ethoxycarbonyl-methylpiperidino)carbonyl]biphenyl] | – | > 10 |
